# Reference: article PMC8220737, “Molecular docking, chemo-informatic properties, alpha-amylase, and lipase inhibition studies of benzodioxol derivatives” (BMC Chemistry, 2021)
# Where “and” joins values, the source holds several entries; their conditions need not be identical. Identical values can stand only once.
# Tests used:
# [1] = target: T1, porcine pancreatic amylase enzyme (Sus scrofa, UniProt P00690); assay: α-Amylase inhibitory activity (DNSA method); assay type: biochemical; conditions: for IC50 (µg/ml) α-amylase / IC50: five concentrations 1, 10, 50, 100, 500 µg/ml, acarbose positive control; for potency relative to acarbose, α-amylase: folds more potent than acarbose
# T1 construct: purchased Frutarom (UK)
# T1 sequence (P00690 16-511): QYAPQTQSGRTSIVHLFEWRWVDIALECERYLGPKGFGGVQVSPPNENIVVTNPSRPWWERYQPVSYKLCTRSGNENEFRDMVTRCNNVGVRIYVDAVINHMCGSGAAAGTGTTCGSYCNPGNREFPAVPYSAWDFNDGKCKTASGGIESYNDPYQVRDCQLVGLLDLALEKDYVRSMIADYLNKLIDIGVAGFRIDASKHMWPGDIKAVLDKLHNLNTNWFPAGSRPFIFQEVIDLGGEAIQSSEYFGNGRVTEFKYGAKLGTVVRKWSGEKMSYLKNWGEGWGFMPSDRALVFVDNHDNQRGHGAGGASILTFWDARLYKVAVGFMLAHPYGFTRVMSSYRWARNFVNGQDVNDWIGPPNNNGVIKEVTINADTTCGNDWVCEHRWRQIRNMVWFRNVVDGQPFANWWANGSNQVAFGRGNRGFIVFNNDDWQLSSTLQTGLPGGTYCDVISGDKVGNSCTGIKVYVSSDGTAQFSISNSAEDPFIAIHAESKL
# Description: The in vitro antidiabetic activity of the synthesized compounds was investigated by assessing their α-amylase inhibitory effects. Acarbose was used as a positive control.
# The following materials were purchased from Frutarom (UK): β-carotene, porcine pancreatic amylase enzyme solution, starch, dinitrosalicylic acid (DNSA), methanol, trolox, gallic acid, Na2CO3, and acarbose.
# The α-amylase inhibitory assessment was based on the Wickramaratne et al. protocol with some slight alterations in some steps. The experimental part was carried out by following the 3,5-dinitrosalicylic acid (DNSA) procedure. Solutions of 20 mm sodium phosphate monobasic and sodium phosphate dibasic buffer involving 6.7 mm sodium chloride (NaH2PO4 and Na2HPO4, both including 6.7 mm NaCl, pH 6.9) were constructed by partially filling the beaker with NaH2PO4 and NaCl solution; the mixture was subjected to a magnetic stirrer. In contrast, the pH was adjusted by inserting a calibrated pH electrode in the solution. Then, the Na2HPO4 and NaCl solution was gradually added until the pH reached 6.9. A weight of 5.36 g of 20 mm Na2HPO4. 7H2O and 0.39 g of 6.7 mm NaCl were dispersed in distilled water to make 1 L and a weight of 2.76 g of NaH2PO4. […] Working solutions with concentrations of 1, 10, 50, 100 and 500 µg/ml were obtained by mixing 0.01, 0.1, 0.5, 1, and 5 ml of our synthesized molecules, respectively, and then diluting them with a buffer of Na2HPO4/NaH2PO4 (0.02 M) and NaCl (0.006 M) at pH 6.9 and then brined up to 10 ml using VF (10 ml). The acarbose was considered a reference and was established following the same previous steps used for the synthesized molecules.
# A starch solution with a concentration of 1% (w/v) was prepared by suspending 1000 mg of starch in 100 ml of distilled water using V.F (100 ml), and then it was kept in a water bath at 37 °C until use, with occasional mixing to prevent starch precipitation. DNSA was used as a reactive reagent to react with reducing sugars to produce 3-amino-5- nitro salicylic acid that is highly absorbent of light at about 540 nm. It was prepared by dissolving 12 g of sodium potassium tartrate tetrahydrate in 8.0 ml of 2 M NaOH (8 g in 100 ml distill. water) then further dissolved in 20 ml of 96 mm of 3.5-dinitrosalicylic acid solution.
# Then, 200 μl of the amylase solution (2 units/ml) was gently shaken with 200 μl of each of the VOs established working solutions, and then this was incubated at 37 °C for 10 min. Then 200 μl of the starch solution was added to each test tube, and there was further incubation for 3 min at 37 °C. The addition of 200 μl DNSA terminated the reaction and then boiling for 10 min at 85 to 90 °C. The mixture was then cooled to room temperature and diluted with 5 ml of distilled water, and the absorbance was recorded at 540 nm using a UV–Visible spectrophotometer. Replacement of the synthesized compounds with 200 μl of buffer was established to obtain the blank sample. In this protocol, acarbose was the positive control sample.
# [2] = target: T2, porcine pancreatic lipase (Sus scrofa, UniProt P00591); assay: Anti-lipase activity (PNPB hydrolysis); assay type: biochemical; conditions: for IC50 (µg/ml) Lipase: five dilutions 40, 100, 200, 300, 400 µg/ml, orlistat positive control; for IC50: read-out: IC50 (µg/ml) Lipase (converted)
# T2 sequence (P00591 1-450): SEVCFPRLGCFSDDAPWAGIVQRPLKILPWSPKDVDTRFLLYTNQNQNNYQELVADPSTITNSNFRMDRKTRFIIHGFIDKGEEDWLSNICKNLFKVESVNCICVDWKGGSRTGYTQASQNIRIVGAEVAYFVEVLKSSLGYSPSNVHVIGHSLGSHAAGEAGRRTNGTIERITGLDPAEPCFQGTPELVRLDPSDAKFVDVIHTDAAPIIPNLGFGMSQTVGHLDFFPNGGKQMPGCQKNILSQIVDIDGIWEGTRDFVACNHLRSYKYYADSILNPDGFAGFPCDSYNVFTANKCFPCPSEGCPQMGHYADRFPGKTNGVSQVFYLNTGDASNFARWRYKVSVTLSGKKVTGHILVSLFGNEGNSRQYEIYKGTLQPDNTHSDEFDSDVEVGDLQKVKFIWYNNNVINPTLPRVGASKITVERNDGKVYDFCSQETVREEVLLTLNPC
# Protocol: A solution of 1 mg/ml of the synthesized compounds was mixed with 10% dimethyl sulfoxide (DMSO) and then diluted with 10% DMSO to produce five dilutions (40, 100, 200, 300, and 400 µg/ml).
# A freshly prepared stock solution of pancreatic lipase enzyme was established by suspending this enzyme in 10% DMSO to form 1 mg/ml. Firstly, 25 mg of lipase was suspended in a small amount of 10% DMSO, bringing the volume up to 25 ml in V.F (25 ml), this was then put in a water bath sonicator at 37 °C for 15 min. […] The pancreatic lipase inhibition assay was conducted by adopting the procedure in the references with slight modifications. From each working solution of the synthesized compounds prepared above, 200 µl of the synthesized compounds were taken and put in a separate test tube, then 100 µl of porcine pancreatic lipase (1 mg/ml) was added to it. The resulting mixture was then adjusted to 1000 µl after addition to the 700 µl of Tris–HCl solution, and then it was incubated in a water bath at 37 °C for 15 min. After the incubation, 100 µl of PNPB (p-nitrophenyl butyrate) solution was added to each test tube. This mixture was then incubated again in a water bath at 37 °C for 30 min. A solution characterized as a negative control was constructed without the synthesized compounds, using 100 µl of porcine pancreatic lipase (1 mg/ml) solution mixed with the Tris–HCl solution up to 1 ml after the addition of 900 µl. […] The % inhibition of the synthesized compounds was calculated by using the following equation: Inhibitory lipase%=Ab-As/Ab∗100
Compound,IC50 (µg/ml) α-amylase [1],IC50 (µg/ml) Lipase [2] [µg/mL],IC50 [1] [µM],IC50 [2] [µM],α-amylase inhibitory activity in words [1],"potency relative to acarbose, α-amylase [1]"
COC(=O)Cc1cc2c(cc1C(=O)c1ccccc1I)OCO2 [3c],39.85 ± 1.3 µg/mL,> 400,–,–,–,–
COC(=O)Cc1cc2c(cc1C(=O)c1ccccc1Cl)OCO2 [3a],–,–,7.57,437,–,–
COC(=O)Cc1cc2c(cc1C(=O)c1cccc(I)c1)OCO2 [3d],16.36 ± 0.75 µg/mL,118.86 ± 2.1,–,–,–,–
COC(=O)Cc1cc2c(cc1C(=O)c1ccccc1)OCO2 [3b],61.45 ± 1.5 µg/mL,> 400,–,–,lowest activity,–
O=C(O)Cc1cc2c(cc1C(=O)c1cccc(Br)c1)OCO2 [4 g],4.90 ± 2.21 µg/mL,225.8 ± 1.43,–,–,–,–
COC(=O)Cc1cc2c(cc1C(=O)c1ccccc1Br)OCO2 [3e],2.57 ± 0.90 µg/mL,78.37 ± 1.72,–,–,–,–
COC(=O)Cc1cc2c(cc1C(=O)c1cccc(Br)c1)OCO2 [3f],9.29 ± 1.4 µg/mL,> 400,–,–,–,–

# Continued, in another order:
IC50 (µg/ml) α-amylase [1],IC50 (µg/ml) Lipase [2] [µg/mL],IC50 [1] [µM],IC50 [2] [µM],α-amylase inhibitory activity in words [1],Compound,"potency relative to acarbose, α-amylase [1]"
7.95 ± 1.15 µg/mL,187.7 ± 1.23,–,–,–,O=C(O)Cc1cc2c(cc1C(=O)c1ccccc1I)OCO2 [4d],–
8.88 ± 2.10 µg/mL,> 400,–,–,–,O=C(O)Cc1cc2c(cc1C(=O)c1ccccc1Cl)OCO2 [4a],–
1.25 ± 1.01 µg/mL,> 400,–,–,–,O=C(O)Cc1cc2c(cc1C(=O)c1cccc(Cl)c1)OCO2 [4b],five to six folds more potent than acarbose
3.85 ± 0.98 µg/mL,201.2 ± 2.37,–,–,–,O=C(O)Cc1cc2c(cc1C(=O)c1cccc(I)c1)OCO2 [4e],–
–,–,3.06,800,–,O=C(O)Cc1cc2c(cc1C(=O)c1ccccc1Br)OCO2 [4f],five to six folds more potent than acarbose
4.12 ± 1.63 µg/mL,213.82 ± 2.1,–,–,–,O=C(O)Cc1cc2c(cc1C(=O)c1ccccc1)OCO2 [4c],–
8.54 µg/mL and 8.547 ± 1.55 µg/mL,44.47 ± 2.30,–,–,–,COc1ccc(NC(=O)c2ccc3c(c2)OCO3)cc1OC [6a],–
–,–,14.2,335,–,COc1cc(NC(=O)c2ccc3c(c2)OCO3)cc(OC)c1 [6b],–
